Assay results from patent US11629171B2, “Beta-hairpin peptidomimetics” (POLYPHOR AG, priority 2017, dated 2023).
≈ marks a conversion by molar mass, not a printed value. Where a SMILES comes first, the peptide text is derived from it. Bridges are numbered along the chain shown (N, C = ends). Roman numbers before positions name the chains, in order. [ ]: non-standard residue; d: D form. The star is where a group is joined. Thr(ol) = C[C@@H](O)[C@H](N)CO; pGlu = O=C1CC[C@@H](C(=O)O)N1; Tle = CC(C)(C)[C@H](N)C(=O)O; Hiv = CC(C)[C@H](O)C(=O)O; Isovaleryl = CC(C)CC(=O)*; dDab = NCC[C@@H](N)C(=O)O; hSer = N[C@@H](CCO)C(=O)O; NHCH(CH2OH)2 = OCC(CO)N*; Orn = NCCC[C@H](N)C(=O)O; Dab = NCC[C@H](N)C(=O)O; Dap = NC[C@H](N)C(=O)O

Columns and labels:
Assay type in all cases: cell-based
[1] = test system: Acinetobacter baumannii 872842; conditions: 872842
How it was run: (§1)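 CLSI broth microdilution in cation-adjusted Mueller-Hinton II broth with 0.002% polysorbate 80 (final), inoculum appr. 10^6 CFU/mL, peptides in serial two-fold dilutions. MIC (μg/mL) is the lowest concentration without visible growth after 18-20 h at 35° C.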

[2] = test system: Acinetobacter baumannii DSM 30008; conditions: DSM 30008
How it was run: as §1

[3] = test system: Enterobacter cloacae 848840; conditions: 848840
How it was run: as §1

Escherichia coli 926415 = conditions: 926415
How it was run: as §1

[4] = test system: Escherichia coli ATCC 25922; conditions: ATCC 25922
How it was run: as §1

[5] = test system: Klebsiella pneumoniae 968733; conditions: 968733
How it was run: as §1

[6] = test system: Klebsiella pneumoniae SSI #3010; conditions: SSI #3010
How it was run: as §1

[7] = test system: Pseudomonas aeruginosa ATCC 27853; conditions: ATCC 27853
How it was run: as §1

[8] = test system: human red blood cells (hRBC); assay: Hemolysis; conditions: red cells of human, 1 h, 200
How it was run: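 Percent lysis of human red cells was derived from OD540 of the supernatant, referenced to 2% Triton X-100, after a 1 h, 37° C incubation of 20% (v/v) cells with 200 μg/mL peptide.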

| MIC [1] [µg/mL] | MIC [2] [µg/mL] | MIC [3] [µg/mL] | MIC (Escherichia coli 926415) [µg/mL] | MIC [4] [µg/mL] | MIC [5] [µg/mL] | MIC [6] [µg/mL] | MIC [7] [µg/mL] | SMILES | Hemolysis at 200 μg/mL [8] [%] |
| --- | --- | --- | --- | --- | --- | --- | --- | --- | --- |
| 1 (≈ 0.439 µM) | 0.125 (≈ 0.0548 µM) | 0.25 (≈ 0.11 µM) | 2 (≈ 0.877 µM) | 0.125 (≈ 0.0548 µM) | 0.5 (≈ 0.219 µM) | 0.125 (≈ 0.0548 µM) | 0.25 (≈ 0.11 µM) | CC(C)C[C@@H]1NC(=O)[C@@H](CC(C)C)NC(=O)[C@H](CCN)NC(=O)[C@@H](NC(=O)[C@H](CN)NC(=O)[C@@H](NC(=O)[C@H](CCN)NC(=O)CC[C@@H]2NC(=O)[C@H](CO)NC(=O)[C@H](Cc3ccc(O)cc3)NC(=O)[C@@H](NC(=O)[C@@H](O)C(C)C)CCCNC(=O)[C@@H]([C@H](C)O)NC(=O)[C@H](C(C)(C)C)NC(=O)[C@H](CO)NC(=O)[C@H](Cc3c[nH]c4ccccc34)NC(=O)[C@H](CCO)NC(=O)[C@@H](CCN)NC2=O)[C@@H](C)O)CCNC(=O)[C@H]([C@@H](C)O)NC(=O)[C@H](CCN)NC(=O)[C@H](CCN)NC1=O [Ex. 24] (I: H-[Hiv][Orn]YSE[dDab][hSer]WS[Tle][dT] / II: [Dab]T[Dap][Dab][Dab][dL]L[Dab][Dab]T; lactam I:2-I:C, II:4-II:C; amide I:5-II:N) | <1 |
| 0.0625 (≈ 0.0262 µM) | 0.03125 (≈ 0.0131 µM) | 0.0625 (≈ 0.0262 µM) | 0.0625 (≈ 0.0262 µM) | 0.0625 (≈ 0.0262 µM) | 0.0625 (≈ 0.0262 µM) | 0.0625 (≈ 0.0262 µM) | 0.125 (≈ 0.0524 µM) | CC(C)C[C@@H]1NC(=O)[C@@H](CC(C)C)NC(=O)[C@H](CCN)NC(=O)[C@@H](NC(=O)[C@H](CCN)NC(=O)[C@@H](NC(=O)[C@H](CCN)NC(=O)CC[C@@H]2NC(=O)[C@H](CN)NC(=O)[C@H](Cc3ccc(O)cc3)NC(=O)[C@@H](NC(=O)[C@@H](O)C(C)C)CSSC[C@@H](C(=O)N[C@H](CO)[C@@H](C)O)NC(=O)[C@H](C(C)(C)C)NC(=O)[C@H](CO)NC(=O)[C@H](Cc3c[nH]c4ccccc34)NC(=O)[C@H](CCO)NC(=O)[C@@H](CCN)NC2=O)[C@@H](C)O)CCNC(=O)[C@H]([C@@H](C)O)NC(=O)[C@H](CCN)NC(=O)[C@H](CCN)NC1=O [Ex. 79] (I: H-[Hiv]CY[Dap]E[dDab][hSer]WS[Tle]C[Thr(ol)] / II: [Dab]T[Dab][Dab][Dab][dL]L[Dab][Dab]T; disulfide I:2-I:11; amide I:5-II:N; lactam II:4-II:C) | <1 |
| 0.25 (≈ 0.104 µM) | 0.125 (≈ 0.0518 µM) | 0.25 (≈ 0.104 µM) | 0.25 (≈ 0.104 µM) | 0.125 (≈ 0.0518 µM) | 0.25 (≈ 0.104 µM) | 0.125 (≈ 0.0518 µM) | 0.125 (≈ 0.0518 µM) | CC(C)C[C@@H]1NC(=O)[C@@H](CC(C)C)NC(=O)[C@H](CCN)NC(=O)[C@@H](NC(=O)[C@H](CCN)NC(=O)[C@@H](NC(=O)[C@H](CCN)NC(=O)CC[C@@H]2NC(=O)[C@H](CCN)NC(=O)[C@H](Cc3ccc(O)cc3)NC(=O)[C@@H](NC(=O)[C@@H]3CCC(=O)N3)CSSC[C@@H](C(=O)N[C@H](CO)[C@@H](C)O)NC(=O)[C@H](C(C)(C)C)NC(=O)[C@H](CO)NC(=O)[C@H](Cc3c[nH]c4ccccc34)NC(=O)[C@H](CCO)NC(=O)[C@@H](CCN)NC2=O)[C@@H](C)O)CCNC(=O)[C@H]([C@@H](C)O)NC(=O)[C@H](CCN)NC(=O)[C@H](CCN)NC1=O [Ex. 77] (I: [pGlu]CY[Dab]E[dDab][hSer]WS[Tle]C[Thr(ol)] / II: [Dab]T[Dab][Dab][Dab][dL]L[Dab][Dab]T; disulfide I:2-I:11; amide I:5-II:N; lactam II:4-II:C) | <1 |
| 0.5 (≈ 0.209 µM) | 0.0625 (≈ 0.0262 µM) | 0.5 (≈ 0.209 µM) | 0.5 (≈ 0.209 µM) | 0.125 (≈ 0.0524 µM) | 1 (≈ 0.419 µM) | 0.125 (≈ 0.0524 µM) | 0.25 (≈ 0.105 µM) | CC(C)C[C@@H]1NC(=O)[C@@H](CC(C)C)NC(=O)[C@H](CCN)NC(=O)[C@@H](NC(=O)[C@H](CCN)NC(=O)[C@@H](NC(=O)[C@H](CCN)NC(=O)CC[C@@H]2NC(=O)[C@H](CCN)NC(=O)[C@H](C(C)C)NC(=O)[C@@H](NC(=O)[C@@H](O)C(C)C)CSSC[C@@H](C(=O)N[C@H](CO)[C@@H](C)O)NC(=O)[C@H](Cc3ccc(O)cc3)NC(=O)[C@H](CO)NC(=O)[C@H](Cc3c[nH]c4ccccc34)NC(=O)[C@H](CCO)NC(=O)[C@@H](CCN)NC2=O)[C@@H](C)O)CCNC(=O)[C@H]([C@@H](C)O)NC(=O)[C@H](CCN)NC(=O)[C@H](CCN)NC1=O [Ex. 89] (I: H-[Hiv]CV[Dab]E[dDab][hSer]WSYC[Thr(ol)] / II: [Dab]T[Dab][Dab][Dab][dL]L[Dab][Dab]T; disulfide I:2-I:11; amide I:5-II:N; lactam II:4-II:C) | <1 |
| 0.25 (≈ 0.102 µM) | 0.0625 (≈ 0.0256 µM) | 1 (≈ 0.41 µM) | 0.25 (≈ 0.102 µM) | 0.125 (≈ 0.0512 µM) | 0.125 (≈ 0.0512 µM) | 0.125 (≈ 0.0512 µM) | 0.125 (≈ 0.0512 µM) | CC(=O)N[C@@H](C(=O)N[C@H]1CSSC[C@@H](C(=O)N[C@H](CO)[C@@H](C)O)NC(=O)[C@H](C(C)(C)C)NC(=O)[C@H](CO)NC(=O)[C@H](Cc2c[nH]c3ccccc23)NC(=O)[C@H](CCO)NC(=O)[C@@H](CCN)NC(=O)[C@H](CCC(=O)N[C@@H](CCN)C(=O)N[C@H](C(=O)N[C@@H](CCN)C(=O)N[C@H]2CCNC(=O)[C@H]([C@@H](C)O)NC(=O)[C@H](CCN)NC(=O)[C@H](CCN)NC(=O)[C@H](CC(C)C)NC(=O)[C@@H](CC(C)C)NC(=O)[C@H](CCN)NC2=O)[C@@H](C)O)NC(=O)[C@H](CCN)NC(=O)[C@H](Cc2ccc(O)cc2)NC1=O)C(C)C [Ex. 86] (I: Ac-[dV]CY[Dab]E[dDab][hSer]WS[Tle]C[Thr(ol)] / II: [Dab]T[Dab][Dab][Dab][dL]L[Dab][Dab]T; disulfide I:2-I:11; amide I:5-II:N; lactam II:4-II:C) | <1 |
| 0.25 (≈ 0.108 µM) | 0.0625 (≈ 0.0271 µM) | 0.125 (≈ 0.0542 µM) | 0.5 (≈ 0.217 µM) | 0.0625 (≈ 0.0271 µM) | 0.5 (≈ 0.217 µM) | 0.125 (≈ 0.0542 µM) | 0.25 (≈ 0.108 µM) | CC(=O)N[C@H](C(=O)N[C@H]1CCCNC(=O)[C@@H]([C@H](C)O)NC(=O)[C@H](C(C)(C)C)NC(=O)[C@H](CO)NC(=O)[C@H](Cc2c[nH]c3ccccc23)NC(=O)[C@H](CO)NC(=O)[C@@H](CCN)NC(=O)[C@H](CCC(=O)N[C@@H](CCN)C(=O)N[C@H](C(=O)N[C@@H](CN)C(=O)N[C@H]2CCNC(=O)[C@H]([C@@H](C)O)NC(=O)[C@H](CCN)NC(=O)[C@H](CCN)NC(=O)[C@H](CC(C)C)NC(=O)[C@@H](CC(C)C)NC(=O)[C@H](CCN)NC2=O)[C@@H](C)O)NC(=O)[C@H](CO)NC(=O)[C@H](Cc2ccc(O)cc2)NC1=O)C(C)C [Ex. 23] (I: Ac-V[Orn]YSE[dDab]SWS[Tle][dT] / II: [Dab]T[Dap][Dab][Dab][dL]L[Dab][Dab]T; lactam I:2-I:C, II:4-II:C; amide I:5-II:N) | <1 |
| 0.0625 (≈ 0.026 µM) | 0.03125 (≈ 0.013 µM) | 0.125 (≈ 0.0521 µM) | 0.0625 (≈ 0.026 µM) | 0.03125 (≈ 0.013 µM) | 0.125 (≈ 0.0521 µM) | 0.125 (≈ 0.0521 µM) | 0.125 (≈ 0.0521 µM) | CC(=O)N[C@H](C(=O)N[C@H]1CSSC[C@@H](C(=O)N[C@@H](CO)C(N)=O)NC(=O)[C@H](C(C)(C)C)NC(=O)[C@H](CO)NC(=O)[C@H](Cc2c[nH]c3ccccc23)NC(=O)[C@H](CO)NC(=O)[C@@H](CCN)NC(=O)[C@H](CCC(=O)N[C@@H](CCN)C(=O)N[C@H](C(=O)N[C@@H](CN)C(=O)N[C@H]2CCNC(=O)[C@H]([C@@H](C)O)NC(=O)[C@H](CCN)NC(=O)[C@H](CCN)NC(=O)[C@H](CC(C)C)NC(=O)[C@@H](CC(C)C)NC(=O)[C@H](CCN)NC2=O)[C@@H](C)O)NC(=O)[C@H](CO)NC(=O)[C@H](Cc2ccc(O)cc2)NC1=O)C(C)C [Ex. 132] (I: Ac-VCYSE[dDab]SWS[Tle]CS-NH2 / II: [Dab]T[Dap][Dab][Dab][dL]L[Dab][Dab]T; disulfide I:2-I:11; amide I:5-II:N; lactam II:4-II:C) | 2 |
| 0.125 (≈ 0.053 µM) | 0.0625 (≈ 0.0265 µM) | 0.125 (≈ 0.053 µM) | 0.125 (≈ 0.053 µM) | 0.0625 (≈ 0.0265 µM) | 0.25 (≈ 0.106 µM) | 0.125 (≈ 0.053 µM) | 0.125 (≈ 0.053 µM) | CC(C)CC(=O)N[C@H]1CSSC[C@@H](C(=O)NC(CO)CO)NC(=O)[C@H](C(C)(C)C)NC(=O)[C@H](CO)NC(=O)[C@H](Cc2c[nH]c3ccccc23)NC(=O)[C@H]([C@@H](C)O)NC(=O)[C@@H](CCN)NC(=O)[C@H](CCC(=O)N[C@@H](CCN)C(=O)N[C@H](C(=O)N[C@@H](CCN)C(=O)N[C@H]2CCNC(=O)[C@H]([C@@H](C)O)NC(=O)[C@H](CCN)NC(=O)[C@H](CCN)NC(=O)[C@H](CC(C)C)NC(=O)[C@@H](CC(C)C)NC(=O)[C@H](CCN)NC2=O)[C@@H](C)O)NC(=O)[C@H](CN)NC(=O)[C@H](Cc2ccc(O)cc2)NC1=O [Example 5] (I: Isovaleryl-CY[Dap]E[dDab]TWS[Tle]C-{NHCH(CH2OH)2} / II: [Dab]T[Dab][Dab][Dab][dL]L[Dab][Dab]T; disulfide I:1-I:10; amide I:4-II:N; lactam II:4-II:C) | <1 |
